In PubChem BioAssay AID2060901 (Molecular Pharmacology Branch, DTP, NCI, 2025):
Where “and” joins values, the source holds several entries; their conditions need not be identical. Equal values may be shown once.

Tested on: 422866-222-R5-J1-PDC complex spheroids viability
Test: Anticancer human tumor 422866-222-R5-J1-PDC patient-derived pancreatic adenocarcinoma cell line growth inhibition [RAS]
Settings: for IC50: curve of first compound; for viability, T/C: stronger effect = lower value; active means viability on the fitted dose curve at most 10% of control; inactive means the rest
Summary of the method: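 Multi-cell-type spheroids: tumor cells plus HUVEC endothelial cells and mesenchymal stem cells. RAS-pathway inhibitors were combined with targeted agents, each dosed in half-log steps down from clinical Cmax, or from 10 microM when Cmax was unknown.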

[1] = second compound 0.000949 µM, first compound 0.00316 µM
[2] = second compound 0.000949 µM, first compound 0.01 µM
[3] = second compound 0.000949 µM, first compound 0.0316 µM
[4] = second compound 0.000949 µM, first compound 0.1 µM
[5] = second compound 0.000949 µM, first compound 0.316 µM
[6] = second compound 0.000949 µM, first compound 1 µM
[7] = second compound 0.003 µM, first compound 0.00316 µM
[8] = second compound 0.003 µM, first compound 0.01 µM
[9] = second compound 0.003 µM, first compound 0.0316 µM
[10] = second compound 0.003 µM, first compound 0.1 µM
[11] = second compound 0.003 µM, first compound 0.316 µM
[12] = second compound 0.003 µM, first compound 1 µM
[13] = second compound 0.00949 µM, first compound 0.00316 µM
[14] = second compound 0.00949 µM, first compound 0.01 µM
[15] = second compound 0.00949 µM, first compound 0.0316 µM
[16] = second compound 0.00949 µM, first compound 0.1 µM
[17] = second compound 0.00949 µM, first compound 0.316 µM
[18] = second compound 0.00949 µM, first compound 1 µM
[19] = second compound 0.03 µM, first compound 0.00316 µM
[20] = second compound 0.03 µM, first compound 0.01 µM
[21] = second compound 0.03 µM, first compound 0.0316 µM
[22] = second compound 0.03 µM, first compound 0.1 µM
[23] = second compound 0.03 µM, first compound 0.316 µM
[24] = second compound 0.03 µM, first compound 1 µM
[25] = second compound 0.0949 µM, first compound 0.00316 µM
[26] = second compound 0.0949 µM, first compound 0.01 µM
[27] = second compound 0.0949 µM, first compound 0.0316 µM
[28] = second compound 0.0949 µM, first compound 0.1 µM
[29] = second compound 0.0949 µM, first compound 0.316 µM
[30] = second compound 0.0949 µM, first compound 1 µM
[31] = second compound 0.3 µM, first compound 0.00316 µM
[32] = second compound 0.3 µM, first compound 0.01 µM
[33] = second compound 0.3 µM, first compound 0.0316 µM
[34] = second compound 0.3 µM, first compound 0.1 µM
[35] = second compound 0.3 µM, first compound 0.316 µM
[36] = second compound 0.3 µM, first compound 1 µM
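Further: spheroids exposed to compounds for 7 days.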
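Wherever viability, T/C is given: 100% = DMSO vehicle control viability.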

C=CC(=O)Nc1cc(Nc2nccc(-c3cn(C)c4ccccc34)n2)c(OC)cc1N(C)CCN(C)C + CCn1c(-c2cc(N3CCN(C)CC3)cnc2C(C)OC)c2c3cc(ccc31)-c1csc(n1)CC(NC(=O)C1CC1C)C(=O)N1CCCC(N1)C(=O)OCC(C)(C)C2
< 3.16 nM: IC50 (second compound 0.000949 µM) | IC50 (second compound 0.003 µM) | IC50 (second compound 0.00949 µM) | IC50 (second compound 0.03 µM) | IC50 (second compound 0.0949 µM) | IC50 (second compound 0.3 µM)
inactive: viability, T/C [1] 32.2% | viability, T/C [2] 25.2% | viability, T/C [3] 26.4% | viability, T/C [4] 21.6% | viability, T/C [5] 23.1% | viability, T/C [6] 24.7% | viability, T/C [7] 26.1% | viability, T/C [8] 20.3% | viability, T/C [9] 20.2% | viability, T/C [10] 17.2% | viability, T/C [11] 16.4% | viability, T/C [12] 18.9% | viability, T/C [13] 20.4% | viability, T/C [14] 17.9% | viability, T/C [15] 17% | viability, T/C [16] 14.1% | viability, T/C [17] 14.5% | viability, T/C [18] 17.1% | viability, T/C [19] 19.9% | viability, T/C [20] 18.6% | viability, T/C [21] 16.8% | viability, T/C [22] 14.4% | viability, T/C [23] 15.1% | viability, T/C [24] 15.6% | viability, T/C [25] 20% | viability, T/C [26] 17.4% | viability, T/C [27] 19.2% | viability, T/C [28] 16.9% | viability, T/C [29] 16.1% | viability, T/C [30] 18.7% | viability, T/C [31] 19.3% | viability, T/C [32] 20.9% | viability, T/C [33] 19.1% | viability, T/C [34] 16.5% | viability, T/C [35] 16.5% | viability, T/C [36] 20.8%

CC(C)n1nc(-c2ccc3oc(N)nc3c2)c2c(N)ncnc21 + CCn1c(-c2cccnc2C(C)OC)c2c3cc(ccc31)N1CCOC(CC(NC(=O)C(C(C)C)N(C)C(=O)C3(F)CCN(C(=O)C#CC(C)(C)N(C)C)CC3)C(=O)N3CCCC(N3)C(=O)OCC(C)(C)C2)C1
inactive: viability, T/C (second compound 0.000949 µM, first compound 0.000316 µM) 26.9% | viability, T/C (second compound 0.000949 µM, first compound 0.001 µM) 24.3% | viability, T/C [1] 24.7% | viability, T/C [2] 22.9% | viability, T/C [3] 23.1% | viability, T/C [4] 22.1% | viability, T/C (second compound 0.003 µM, first compound 0.000316 µM) 23.4% | viability, T/C (second compound 0.003 µM, first compound 0.001 µM) 18.7% | viability, T/C [7] 21% | viability, T/C [8] 17.6% | viability, T/C [9] 14.1% | viability, T/C [10] 16.5% | viability, T/C (second compound 0.00949 µM, first compound 0.000316 µM) 23.4% | viability, T/C (second compound 0.00949 µM, first compound 0.001 µM) 25.9% | viability, T/C [13] 19.4% | viability, T/C [14] 16.5% | viability, T/C [15] 14.7% | viability, T/C [16] 12.2% | viability, T/C (second compound 0.03 µM, first compound 0.000316 µM) 21.5% | viability, T/C (second compound 0.03 µM, first compound 0.001 µM) 17.6% | viability, T/C [19] 17.5% | viability, T/C [20] 16.6% | viability, T/C [21] 15.4% | viability, T/C [22] 15.6% | viability, T/C (second compound 0.0949 µM, first compound 0.000316 µM) 17.8% | viability, T/C (second compound 0.0949 µM, first compound 0.001 µM) 15.4% | viability, T/C [25] 16.9% | viability, T/C [26] 15.2% | viability, T/C [27] 12.2% | viability, T/C [28] 12.5% | viability, T/C (second compound 0.3 µM, first compound 0.000316 µM) 15.4% | viability, T/C (second compound 0.3 µM, first compound 0.001 µM) 18.8% | viability, T/C [31] 15.2% | viability, T/C [32] 15.1% | viability, T/C [33] 12.3% | viability, T/C [34] 10.2%
< 0.316 nM: IC50 (second compound 0.000949 µM) | IC50 (second compound 0.003 µM) | IC50 (second compound 0.00949 µM) | IC50 (second compound 0.03 µM) | IC50 (second compound 0.0949 µM) | IC50 (second compound 0.3 µM)

CC(Nc1ccc2c(c1)OCCn1cc(N3C(=O)OCC3C(F)F)nc1-2)C(N)=O (stereo unspecified)
inactive: viability, T/C (compound 0.0316 µM) 75.3% [middle of 4 runs] | viability, T/C (compound 0.1 µM) 53.4% [middle of 4 runs] | viability, T/C (compound 0.316 µM) 42.6% [middle of 4 runs] | viability, T/C (compound 1 µM) 39.3% [middle of 4 runs] | viability, T/C (compound 10 µM) 26.1% and 23.8% and 27% (2×)

O=C(c1ccc(F)c(F)c1Nc1ccc(I)cc1F)N1CC(O)([C@@H]2CCCCN2)C1 + CCn1c(-c2cc(N3CCN(C)CC3)cnc2C(C)OC)c2c3cc(ccc31)-c1csc(n1)CC(NC(=O)C1CC1C)C(=O)N1CCCC(N1)C(=O)OCC(C)(C)C2
inactive: viability, T/C [1] 30.9% | viability, T/C [2] 27.3% | viability, T/C [3] 21.8% | viability, T/C [4] 20.4% | viability, T/C [5] 15% | viability, T/C [6] 14.4% | viability, T/C [7] 22.9% | viability, T/C [8] 19.1% | viability, T/C [9] 16.2% | viability, T/C [10] 13.3% | viability, T/C [11] 13.4% | viability, T/C [12] 15.1% | viability, T/C [13] 16% | viability, T/C [14] 14.8% | viability, T/C [15] 14.5% | viability, T/C [16] 11.9% | viability, T/C [17] 11.9% | viability, T/C [18] 13.6% | viability, T/C [19] 14.3% | viability, T/C [20] 13.4% | viability, T/C [21] 13.2% | viability, T/C [22] 13.8% | viability, T/C [23] 13.9% | viability, T/C [24] 14.9% | viability, T/C [25] 15.2% | viability, T/C [26] 16% | viability, T/C [27] 13.4% | viability, T/C [28] 13.8% | viability, T/C [29] 14.5% | viability, T/C [30] 15.3% | viability, T/C [31] 16.7% | viability, T/C [32] 14.9% | viability, T/C [33] 15% | viability, T/C [34] 15.1% | viability, T/C [35] 15.7% | viability, T/C [36] 15.6%
< 3.16 nM: IC50 (second compound 0.000949 µM) | IC50 (second compound 0.003 µM) | IC50 (second compound 0.00949 µM) | IC50 (second compound 0.03 µM) | IC50 (second compound 0.0949 µM) | IC50 (second compound 0.3 µM)
